These results are taken from patent US8486994B2, “Prodrugs of substituted 1,3-dioxanes and their uses” (Evolva SA, priority 2007, dated 2013).

Structures are written as SMILES.

Data set [1] concerns the target T1, Human Recombinant (E. coli) PPARgamma (Homo sapiens, UniProt P37231).
T1 construct: host or cells: E. coli
T1 sequence (P37231 1-505): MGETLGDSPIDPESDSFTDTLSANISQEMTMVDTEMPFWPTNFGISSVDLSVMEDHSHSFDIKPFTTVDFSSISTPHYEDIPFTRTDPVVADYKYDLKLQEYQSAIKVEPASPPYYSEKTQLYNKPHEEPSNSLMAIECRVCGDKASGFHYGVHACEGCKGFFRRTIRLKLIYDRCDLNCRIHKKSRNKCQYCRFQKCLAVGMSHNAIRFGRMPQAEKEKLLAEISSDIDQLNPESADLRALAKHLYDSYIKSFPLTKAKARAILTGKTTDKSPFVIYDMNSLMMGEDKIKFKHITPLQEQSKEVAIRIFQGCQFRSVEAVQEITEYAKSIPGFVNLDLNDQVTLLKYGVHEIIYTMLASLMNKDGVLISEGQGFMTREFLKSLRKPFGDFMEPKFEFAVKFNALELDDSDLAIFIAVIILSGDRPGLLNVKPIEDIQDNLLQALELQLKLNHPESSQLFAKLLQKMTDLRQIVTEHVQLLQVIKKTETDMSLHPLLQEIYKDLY
The data set is described as follows: PPAR gamma binding assay ([3H]-rosiglitazone). On the procedure: Human Recombinant (E. coli) PPARgamma) (h) Binding Assay:
The results are expressed as a percent of control specific binding ((measured specific binding/control specific binding)×100) obtained in the presence of the test compounds. The IC50 values (concentration causing a half-maximal inhibition of control specific binding) and Hill coefficients (nil) were determined by non-linear regression analysis of the competition curves generated with mean replicate values using Hill equation curve fitting (Y=D+[(A−D)/(1+(C/C50)nH)], where Y=specific binding, D=minimum specific binding, A=maximum specific binding, C=compound concentration, C50=IC50, and nH=slope factor). This analysis is performed using a software developed at Cerep (Hill software) and validated by comparison with data generated by the commercial software SigmaPlot® 4.0 for Windows® (© 1997 by SPSS Inc.). The inhibition constants (Ki) are calculated using the Cheng Prusoff equation (Ki=IC50/(1+(L/KD)), where L=concentration of radioligand in the assay, and KD=affinity of the radioligand for the receptor).

Another data set has as its system TP Receptor. The data set is described as follows: TP Receptor Platelet Aggregation - Rabbit (U-46619-induced, platelet rich plasma). It counts as cell-based, New Zealand Rabbit. Particulars: at 0.1 mM; 1.5 μM U-46619. On the procedure: Using these experimental conditions New Zealand Rabbit (2.75±0.25 kg) platelet rich plasma, Vehicle: 0.3% DMSO, Assay: Inhibition of 1.5 μM U-46619-induced platelet aggregation, Incubation Time, Temp: 5 min at 37° C., Incubation Buffer: Trisodium Citrate (0.13 M)-treated platelet rich plasma, Bath Volume: 0.5 mL, Time of Assessment: 5 min, Quantification Method: Optical Density Change. the assay performed according to Patscheke, H., and Stregmeier, K. (1984) Investigations on a selective non-prostanoic thromboxane antagonist, BM13,177, in human platelets. Thrombosis Research 33:277-288
The data were transformed to semi-log and then analysed using non-linear regression to a four-parameter dose-response curve Y=Bottom+(Top−Bottom)/(1+10^((Log EC50−X)*HillSlope)) using the log(agonist) vs. response—Variable slope function of GraphPad Prism software (http://graphpad.com/help/prism5/prism5help.html?usingnonlinear_regression_step_by_s.ht m).

Regarding `COC(=O)CC/C=C\C[C@@H]1COC(c2ccccc2Cl)O[C@@H]1c1ccccc1O` (stereo partly drawn) [Prodrug 2], the “conversion of the prodrug to the corresponding acid” value in data set [1] is reported as “the prodrug is converted to the corresponding acid”. Moreover, the “binding to PPARgamma” value in data set [1] ([3H]-rosiglitazone 10 nM, 120 min at 4° C., compared with the acid of Example 1) is recorded as “binds to PPARgamma at least as well as the corresponding acid”. For `COc1ccc(C(=O)NCc2cccnc2)cc1C(=O)NCc1cccnc1` [Picotamide], the “Platelet aggregation Rabbit Inhibition (%)” value in the data set on TP Receptor was found to be 21%.
